Measured values as given in patent US9656984B2, “PI3K/AKT/mTOR inhibitors and pharmaceutical uses thereof” (UNIVERSITE DE RENNES 1, priority 2013, dated 2017).

Experiments:
[1] = tested on: PI3K/AKT activity (AKT phosphorylation); test: PI3K/AKT/mTOR pathway inhibitory activity: level of AKT phosphorylation in CEM cells over time; assay type: cell-based, human; conditions: 10 μM, FIGS. 7 and 8
Protocol: The CEM cell was incubated with 10 μM of each mentioned compound of formula (I) for the indicated times and then cells were lysed and 100 μg of protein was loaded per line and resolved by SDS-PAGE. The levels of AKT phosphorylation (hallmark of PI3K activation) and total AKT (loading control) were analyzed by Western blot and the amount of AKT phosphorylation relative to the total amount of protein AKT was quantified by densitometric analysis, the intensity of each band was scanned and the level of AKT phosphorylation was reported to the amount of whole AKT and the percentage of phosphorylated-AKT was depicted.
(§1) Immunoblots Excepted for immunoprecipitation experiments in which cells were lyzed with RIPA buffer, cells were lyzed for 30 min at 4° C. in Lysis buffer (25 mM HEPES pH 7.4, 1% v/v Triton X-100, 150 mM NaCl, 2 mM EGTA supplemented with a mix of protease inhibitors). Protein concentration was determined by the bicinchoninic acid method (Pierce, Rockford, Ill., USA) according to the manufacturer's protocol. Proteins were resolved by 8, 10 or 12% SDS-PAGE and transferred to a nitrocellulose membrane (GE Healthcare, Buckinghamshire, UK). The membrane was blocked 15 min with TBST (50 mM Tris, 160 mM NaCl, 0.05% v/v Tween 20, pH 7.4) containing 5% w/v dried skimmed milk (TBS™). Primary antibody was incubated overnight at 4° C. in TBS™. The membrane was intensively washed (TBST) and then the peroxydase-labeled anti-mouse IgG1 or IgG2a (CliniSciences, Nanterre, France) was added for 45 min. Proteins were visualized with the enhanced chemiluminescence substrate kit (ECL RevelBIOt®, Ozyme, Saint Quentin en Yvelines, France).

[2] = tested on: Leukemic T-cell line Jurkat; test: Cytotoxic effect by MTT assay, Jurkat; assay type: cell-based; conditions: 24 hours (FIG. 1) or 20 hours (FIG. 6)
Protocol: (§2) Leukemic T-cell lines Jurkat and CEM were incubated for 24 hours (see FIGS. 1, 2, 3, 4 and 5) or for 20 hours (see FIG. 6) with compounds of formula (I) and with compound A, at the indicated concentrations and cell death was assessed using the viability assay MTT, which estimates the metabolic state of the cell.
(§3) Cell viability was assessed using the 3-[4,5-dimethylthiazol-2-yl]-2,5-diphenyltetrazolium bromide (MTT) viability assay (1). In brief, cells (4×10^4 per well) were cultured for 20 h in flat-bottomed 96 well plates with various concentrations of the apoptosis inducer. Then 0.015 ml of MTT (5 mg/ml in PBS) was added to each well and incubated for 4 h at 37° C. Formazan salt precipitats were dissolved by adding 0.115 ml of isopropyl alcohol containing 1% formic acid (v/v), and the absorbance was measured at 570 nm.

Leukemic T-cell line CEM = test: Cytotoxic effect by MTT assay, CEM; assay type: cell-based; conditions: 24 hours, FIGS. 2 to 5
Protocol: as §2, §3

AKT phosphorylation = test: In cellulo IC50 of AKT phosphorylation in CEM cells (Western blot densitometry); assay type: cell-based; conditions: Homo sapiens, CCRF-CEM, 2 hours incubation, AKT phosphorylation vs whole AKT, read-out: In vivo IC50
Protocol: CEM cells were incubated for 2 hours with the indicated concentrations of each mentioned compound of formula (I). Cells were then lysed and 100 μg of protein was loaded per line in an SDS-PAGE. Bands from AKT phosphorylation and whole AKT observed by Western blot were scanned and quantified by densitometric analysis. Based on these values, an in cellulo IC50 (half maximal inhibitory concentration) was measured for each compound of formula (I).
as §1

[3] = tested on: MCF-7 (ER-positive) breast tumor cell line; test: Cell death by MTT assay, MCF-7; assay type: cell-based, human; conditions: 24 hours, mean of four experiments
Protocol: (§4) The ER-positive breast tumor cell lines MCF-7 and T47-D and the HER2 positive breast tumor cell lines MDA-MB-453 and BT474 (also ER-positive) were incubated with the indicated concentration of each mentioned compound of formula (I) for 24 hours and then cell death was assessed using MTT assay.
(§5) For each cell line, the percentage of cell death (mean of four experiments for cell lines MCF-7 and T47-D, and two experiments for cell lines MDA-MB-453 and BT474) is given in view of the increasing concentration of each tested compound of the invention.
as §3

[4] = tested on: T47-D (ER-positive) breast tumor cell line; test: Cell death by MTT assay, T47-D; assay type: cell-based, human; conditions: 24 hours, mean of four experiments
Protocol: as §4, §5, §3

[5] = tested on: MDA-MB-453 (HER2 positive) breast tumor cell line; test: Cell death by MTT assay, MDA-MB-453; assay type: cell-based, human; conditions: 24 hours, mean of two experiments
Protocol: as §4, §5, §3

[6] = tested on: BT474 (ER-positive/HER2-positive) breast tumor cell line; test: Cell death by MTT assay, BT474; assay type: cell-based, human; conditions: 24 hours, mean of two experiments
Protocol: as §4, §5, §3

mTOR = target: T1, mTOR (Homo sapiens, UniProt P42345); test: Biotin pull-down with streptavidin-coated beads from CEM cells, mTOR immunoblot; assay type: binding; conditions: 1 μM, CEM leukemic T cells, FIG. 12B
T1 construct: endogenous in cells; host or cells: CEM leukemic T cells
Protocol: Compounds 25 and 48 (compound 25 linked to biotin) (1 μM) were incubated with CEM leukemic T cells for indicated times. Then cells were lyzed in RIPA buffer and biotin was immunoprecipitated using streptavidin-coated magnetic beads. Beads were washed and the presence of mTOR was analyzed in compound 48-associated complex by Immunoblotting.
CEM cells (10^7 cells) were pre-incubated for indicated times with 1 μM of compound 25 or compound 48, washed with PBS and lysed using RIPA buffer [50 mM Tris pH7.4, 1% NP-40, 0.5% Na-deoxycholate, 0.1% SDS, 150 mM NaCl, 2 mM EDTA, inhibitors of protease and phosphatase (Sigma)].

mTORC2 = mTORC2 (Homo sapiens, UniProt P42345); test: Immunoblot of AKT serine 473 phosphorylation (target of mTORC2); assay type: cell-based; design: endogenous in cells; conditions: with increasing compound concentrations, FIG. 12A
Protocol: (§6) The inhibition of the phosphorylation level of AKT at serine 473, target of mTORC2, and 4EBP1 (also called Eukaryotic translation initiation factor 4E-binding protein 1) at threonines 37/46, which are targets of mTORC1, by compound 48 (compound 25 linked to biotin) was assessed by immunoblotting. Total AKT and 4EBP1 were added as loading controls.
as §1

mTORC1 = mTORC1 (Homo sapiens, UniProt P42345); test: Immunoblot of 4EBP1 threonines 37/46 phosphorylation (targets of mTORC1); assay type: cell-based; design: endogenous in cells; conditions: with increasing compound concentrations, FIG. 12A
Protocol: as §6, §1

Structure (SMILES): CCOc1cccc2c1OC(c1ccc(F)cc1)C([N+](=O)[O-])=C2 (stereo not shown) [A]
- inhibitory activity on PI3K/AKT (level of AKT phosphorylation) [1]: very weak inhibitory activity
- percentage of cell death (cytotoxic effect) [2]: lower percentage of cell death
- percentage of cell death (cytotoxic effect) (Leukemic T-cell line CEM): lower percentage of cell death

Structure (SMILES): O=c1cc(N2CCOCC2)oc2c(-c3ccccc3)cccc12 [LY294002, reference compound]
- IC50 (AKT phosphorylation): > 10 µM
- percentage of cell death ([3]; MCF-7, 6.25 μM): 11.53%
- percentage of cell death ([3]; MCF-7, 12.5 μM): 11.067%
- percentage of cell death ([3]; MCF-7, 25 μM): 13.51%
- percentage of cell death ([3]; MCF-7, 50 μM): 18.89%
- percentage of cell death ([4]; 6.25 μM): 32.33%
- percentage of cell death ([4]; 12.5 μM): 40.42%
- percentage of cell death ([4]; 25 μM): 50.01%
- percentage of cell death ([4]; 50 μM): 55.69%
- percentage of cell death ([5]; MDA-MB-453, 0.390625 μM): 0%
- percentage of cell death ([5]; MDA-MB-453, 0.78125 μM): 0%
- percentage of cell death ([5]; MDA-MB-453, 1.5625 μM): 0%
- percentage of cell death ([5]; MDA-MB-453, 3.125 μM): 0%
- percentage of cell death ([5]; MDA-MB-453, 6.25 μM): 17.45%
- percentage of cell death ([5]; MDA-MB-453, 12.5 μM): 53.74%
- percentage of cell death ([5]; MDA-MB-453, 25 μM): 76.61%
- percentage of cell death ([5]; MDA-MB-453, 50 μM): 86.55%
- percentage of cell death ([6]; BT474, 6.25 μM): 35.35%
- percentage of cell death ([6]; BT474, 12.5 μM): 48.7%
- percentage of cell death ([6]; BT474, 25 μM): 62.79%
- percentage of cell death ([6]; BT474, 50 μM): 77.2%
- percentage of cell death (cytotoxic effect) (Leukemic T-cell line CEM): much lower cell death percentage

Structure (SMILES): O=C(CCCCC1SC[C@@H]2NC(=O)N[C@H]12)NCCCOc1cc(Br)c2c(c1)C=C([N+](=O)[O-])C(c1ccc(Br)cc1)O2 (stereo partly shown) [Compound 48]
- binding to mTOR (mTOR): binds to mTOR
- phosphorylation of AKT at serine 473 (mTORC2): decreases
- phosphorylation of 4EBP1 at threonines 37/46 (mTORC1): decreases
